The values that follow come from patent US11091769B2, “Development and use of modified plants and seeds that are resistant to herbicides and environmental stress” (Texas State University, priority 2017, dated 2021).

Experiment [1] deals with Arabidopsis seedlings (primary root growth). In words: Root growth inhibition assay. The experiment is classed as in vivo, Arabidopsis thaliana. As to conditions: for root growth sensitivity of PIC30-OX lines: all four PIC30-OX lines; for primary root growth sensitivity of pic30 mutants: pic30-1, pic30-2 and pic30-3, incremental concentrations; for inhibition at 0.1 µM: 100 nM picloram; for primary root growth inhibition: media containing 10 pM picloram. The protocol:
For root growth inhibition assays, 4-5 day old seedlings were transferred to control media and media containing indicated concentrations of different auxins. Primary root lengths were measured after 4 days of incubation, and percentage root growth inhibition was calculated.

The subject of the next experiment is DR5::GFP auxin sensor. In words: Auxin induced DR5::GFP expression. The experiment is classed as in vivo, Arabidopsis thaliana. The settings on record: pic30-3 crossed with DR5::GFP; 5 day-old seedlings; 20 hours incubation. The protocol: To test auxin induced DR5::GFP expression, 5 day-old seedlings were transferred to control media and media containing indicated concentrations of different auxins. Plates were incubated for 20 hours at 21° C. under continuous light. Confocal images were acquired after the incubation period.
Confocal images were acquired using either 20× water immersion or 60× oil immersion lenses with Fluoview™ FV1000 laser scanning confocal microscope (Olympus). While making a quantitative comparison between one or more confocal images, similar laser intensity and transmittance light were used.

In experiment [2] the test system is Arabidopsis apical root sections (PIC30 transporter). In words: In planta radioactive transport assay. Details: species or system Arabidopsis thaliana. As to the method:
In planta transport assays were performed according to a protocol described elsewhere (Ito and Gray, Plant Physiology 142, 63-74, 2006) with few modifications. 15 mm root sections (at root tip) from 9 day-old seedlings were excised and incubated in transport assay buffer (TAB, 20 mM MES-KOH, pH 5.6, 10 mM sucrose and 0.5 mM CaCl2) for 30 minutes. Root sections were then transferred to the TAB containing 1.5 nM of ^14C picloram and 10 pM of unlabeled picloram or 7.9 nM of ^3H IAA and incubated for 1-6 hours at room temperature. Following thorough rinsing with cold TAB buffer, root sections were transferred to scintillation vials containing 1 ml of scintillation liquid. Radioactivity was measured using scintillation counter (Beckman Coulter, Calif.).

The next experiment deals with Arabidopsis plants. The experiment can be described thus: Foliar picloram sensitivity test at the adult stage. Format: in vivo, Arabidopsis thaliana. The protocol: For chlorate and picloram sensitivity testing at the adult stage, 7 day-old seedlings were transferred to soil (Fafard growing mix 2) and grown under continuous light for an additional 12 days. To test chlorate sensitivity, plants were then irrigated with 1 mM sodium chlorate solution on alternating days. Chlorate induced leaf bleaching were examined and imaged after 10-12 days. […] Images were acquired 14-18 days after the treatment.

Experiment [3] deals with PIC30pro::PIC30-GUS expression. The experiment can be described thus: PIC30-GUS expression, quantitative MUG assay. Format: in vivo, Arabidopsis thaliana. As to conditions: 5 day old PIC30pro::PIC30-GUS seedlings; 25 pM picloram; indicated time intervals. As to the method:
To study the effect of picloram on PIC30 expression, 5 day old PIC30pro::PIC30-GUS seedlings were treated with 25 pM picloram in liquid media. They were incubated under continuous light at 21° C. without shaking, and samples were collected at different time intervals and frozen in liquid nitrogen. PIC30-GUS expression was determined through quantitative MUG assay.
Quantification of GUS expression was performed by fluorometric MUG (4-methylumbelliferyl-beta-D-glucuronide) assay following protocol described elsewhere (Parry et al. The Plant Cell 18, […], 2006) and the fluorescence was measured using a Fluorometer (Modulus, Turner Biosystems).

For experiment [4], the system named is Arabidopsis seedlings and plants. The experiment can be described thus: In planta chlorate sensitivity test. The experiment is classed as in vivo, Arabidopsis thaliana. As to the method:
For chlorate sensitivity testing at the seedling stage, seeds were plated onto either control media or media containing 1-1.5 mM sodium chlorate. Plates were incubated under continuous light at 21° C. for 9 days. After the incubation, representative images were acquired using DSLR (PENTAX) camera.
For chlorate and picloram sensitivity testing at the adult stage, 7 day-old seedlings were transferred to soil (Fafard growing mix 2) and grown under continuous light for an additional 12 days. To test chlorate sensitivity, plants were then irrigated with 1 mM sodium chlorate solution on alternating days. Chlorate induced leaf bleaching were examined and imaged after 10-12 days. To test picloram sensitivity, plants were sprayed with 200 g/ha of picloram. Images were acquired 14-18 days after the treatment.

As for `O=C(O)Cc1c[nH]c2ccccc12` [IAA, indole-3-acetic acid], in experiment [1] (4 days incubation), the “root growth sensitivity of PIC30-OX lines” value is given as “wild-type sensitivity” and the “primary root growth sensitivity of pic30 mutants” value is “wild type sensitivity”. Besides, the “DR5::GFP expression in pic30-3” value with DR5::GFP auxin sensor was “upregulated”. For the same compound, the “IAA uptake, wild type versus pic30-3” value in experiment [2] (3H-IAA, 15 mm apical root sections) was “no difference”.

`O=C(O)COc1ccc(Cl)cc1Cl` [2,4-D, 2,4-dichlorophenoxyacetic acid]: the “primary root growth sensitivity of pic30 mutants” value in experiment [1] (4 days incubation) is listed as “wild type sensitivity”. Moreover, the “DR5::GFP expression in pic30-3” value in the experiment on DR5::GFP auxin sensor is given as “upregulated”.

Broadly, the inhibition is how much of the control response was suppressed. Take `Nc1c(Cl)c(Cl)nc(C(=O)O)c1Cl` [picloram]: the inhibition at 0.1 µM was 87 to 89% in experiment [1] (Arabidopsis thaliana, 96 h, PIC30-OX lines, 4 days incubation); roughly 10% in experiment [1] (Arabidopsis thaliana, 96 h, pic30-3, 4 days incubation); roughly 10% in experiment [1] (Arabidopsis thaliana, 96 h, wild type, 4 days incubation). Besides, in experiment [1] (Arabidopsis thaliana, 96 h, four PIC30-OX lines (PIC30-GFP in pic30-3), 10 pM picloram, 4 days incubation), the inhibition at 10 pM was 97 to 98%. Further, in experiment [1] (4 days incubation), the “primary root growth sensitivity of pic30 mutants” value is recorded as “highly insensitive”. In addition, the “primary root growth inhibition” value was 46% in experiment [1] (pic30-3 mutant, 4 days incubation) and “approximately 73%” in experiment [1] (wild type, 4 days incubation). Also, the “primary root growth sensitivity of pic30-1-OX lines” value in experiment [1] (three independent homozygous pic30-1-OX lines in wild type background) was “insensitive”. The “response to foliar treatment” value in the experiment on Arabidopsis plants (PIC30-OX adult plants, 100 g/ha) was “hypersensitive”; with Arabidopsis plants (pic30-1, pic30-2, pic30-3 adult plants, 200 g/ha sprayed), “highly insensitive”. For the same compound, the “DR5::GFP expression in pic30-3” value in the experiment on DR5::GFP auxin sensor was “not”. Also, the “effect on PIC30 gene expression” value in experiment [3] is “did not have influence”. Moreover, the “picloram uptake in pic30-3 versus wild type root sections” value in experiment [2] (pic30-3, 14C-picloram, 15 mm root sections of 9 day-old seedlings) is reported as “significantly lower”. Besides, the “picloram uptake relative to wild type roots” value in experiment [2] (two PIC30-OX lines, 14C-picloram, 15 mm apical root sections) is 26-30 times.

As to `Nc1cc(Cl)nc(C(=O)O)c1Cl` [aminopyralid], in experiment [1] (4 days incubation), the “primary root growth sensitivity of pic30 mutants” value is given as “insensitive”. The “DR5::GFP expression in pic30-3” value in the experiment with DR5::GFP auxin sensor is “not”.

For the compound `[O-][Cl+2]([O-])O` [chlorate, sodium chlorate], the chlorate sensitivity entry in experiment [4] (PIC30-OX lines, adult stage, irrigated with chlorate solution) was “wild-type sensitivity”; in experiment [4] (all four PIC30-OX lines, seedling stage) it was “hypersensitivity”. The “chlorate induced cotyledon and leaf bleaching” value in experiment [4] (pic30-1, seedling and adult stages) is “pronounced cotyledon and leaf bleaching”; in experiment [4] (pic30-2, seedling and adult stages), “pronounced cotyledon and leaf bleaching”; in experiment [4] (wild type, seedling (1-1.5 mM sodium chlorate, 9 days) and adult (1 mM irrigation) stages), “pronounced cotyledon and leaf bleaching”. Also, the “chlorate induced necrosis and leaf bleaching” value in experiment [4] (pic30-3, seedling and adult stages) was “insensitive”.

For the compound `O=C(O)Cc1cccc2ccccc12` [1-NAA, 1-Naphthaleneacetic acid], in experiment [1] (4 days incubation), the “root growth sensitivity of PIC30-OX lines” value is on record as “wild-type sensitivity” and the “primary root growth sensitivity of pic30 mutants” value is “wild type sensitivity”.
